Laboratory results published in PMC5817723, “^99mTc-HYNIC-(tricine/EDDA)-FROP peptide for MCF-7 breast tumor targeting and imaging” (Journal of Biomedical Science, 2018).
Residues, ends and D or L forms follow the SMILES beside them. *: point of attachment. HYNIC = NNc1ccc(C(=O)*)cn1

Assays:
[1] = In vitro stability in succinate buffer (peptide reaction mixture), %RCP by ITLC; format: physicochemical; conditions: room temperature, TLC, n = 3
Protocol: (§1) The radiochemical purity was determined by instant thin layer chromatography (ITLC) in different mobile phases such as methyl ethyl ketone (MEK), acetonitrile/water (50/50) and citrate solvent (0.1 M, pH 5.2) using a Lablogic mini scan TLC scanner (Sheffield, UK) and Laura image analysis software. In MEK, free ^99mTcO4^− migrated with the solvent front, while radiolabeled peptide remained at the application point. In the acetonitrile/water system, the colloids remained at the application point, while radiolabeled peptide migrated in front of solvent. The amount of labeled co-ligand was determined by citrate solvent, that free ^99mTcO4 Na and labeled co-ligand migrate in front of solvent while both RHT and labeled peptide (^99mTc-FROP) remind at the origin. A NaI (Tl) gamma detector (Delshid, Tehran, Iran) was used to for measurement of radioactivity.
[…] For serum stability, ^99mTc-HYNIC-FROP (30 μL) was incubated with freshly human plasma serum (90 μL) in triplicate at 37 °C. At 1 h of incubation, the plasma proteins were precipitated with a mixture of acetonitrile/ethanol (1:1 v/v) and centrifugation. The supernatant layer was filtered through a 0.22 μm filter and then the fraction was analyzed by RP-HPLC. Partition coefficient of ^99mTc-HYNIC-FROP was determined via method that previously was described.

[2] = In vitro stability in normal saline at room temperature; format: physicochemical; conditions: TLC, n = 3
Protocol: as §1
The stability of ^99mTc-HYNIC-FROP in normal saline was evaluated using ITLC at various times (2, 4, 6 and 24 h) at room temperature. For serum stability, ^99mTc-HYNIC-FROP (30 μL) was incubated with freshly human plasma serum (90 μL) in triplicate at 37 °C. At 1 h of incubation, the plasma proteins were precipitated with a mixture of acetonitrile/ethanol (1:1 v/v) and centrifugation. The supernatant layer was filtered through a 0.22 μm filter and then the fraction was analyzed by RP-HPLC. Partition coefficient of ^99mTc-HYNIC-FROP was determined via method that previously was described.

[3] = system: MCF-7, A-549 SKOV-3, PC-3, T47D and HFFF2 cell lines; experiment: Cellular uptake on different cell lines; format: cell-based, human; conditions: 40 nM, 37 °C, 1 h
Protocol: The cellular uptake studies of ^99mTc-HYNIC-(tricine/EDDA)-FROP were performed on MCF-7, A-549 SKOV-3, PC-3, T47D and HFFF2 cell lines. The cells (5 × 10^5) were seeded in 12-well plates overnight and incubated with ^99mTc-HYNIC-FROP (40 nM) at 37 °C for 1 h. Incubation of the samples was terminated by removing medium and washing with cold serum-free medium. Thereafter, the cells were detached by trypsin and the radioactivity in the cell suspension was quantified.

[4] = system: MCF-7 cells; experiment: In vitro specific binding (blocking) on MCF-7 cells; format: cell-based, human; conditions: pre-saturation 0.5 h at 37 °C with unlabeled FROP
Protocol: For specific binding experiment, the MCF-7 cells were saturated with 500-fold excess of unlabeled peptide prior adding of the ^99mTc-HYNIC-FROP to cells for 30 min.

[5] = system: MCF-7 cells; experiment: Saturation binding assay on MCF-7 cells; set-up: species or system human; conditions: saturation 30–250 nM, 30 min, nonlinear regression
Protocol: The cell-binding affinity of ^99mTc-HYNIC-FROP was assessed with saturation method. For determining of […] (Kd) and total number of binding sites (Bmax), ^99mTc-HYNIC-FROP was prepared in high radiochemical purity. MCF-7 cells were seeded into 24-well plates and incubated overnight. Then cells were incubated with various concentrations of radiolabeled peptide (30–250 nM) for 30 min. One dish was added blocking solution containing of 500-fold excess of highest concentration of ^99mTc-HYNIC-FROP. The cells were then washed with cold serum free medium to remove free radioactivity. The cells with bound radioactivity detached with trypsin and collected and radioactivity was measured. The (Kd) and (Bmax) value were calculated using Graphpad prism software based on specific binding of ^99mTc-HYNIC-FROP on MCF-7 cells.

[6] = system: MCF-7 tumor bearing mouse; experiment: Planar gamma camera tumor imaging; format: in vivo; conditions: MCF-7 xenograft nude mouse, i.v., 15 min p.i.
Protocol: For gamma camera imaging, MCF-7 tumor bearing mouse was intravenously injected through the tail with ^99mTc-HYNIC-FROP. After 15 min p.i. the mouse immediately was anesthetized using ketamine/xylazine and whole-body dynamic imaging was conducted. The imaging was performed at the department of radiology at Mazandaran Hospital by a dual-head e.cam gamma camera (Siemens Medical Systems, Inc.), equipped with a low-energy, high-resolution collimator. The evaluation of the image was performed using an e-soft (Siemens Medical Systems).

[7] = 5 × 10^5 cells, cell-associated radioactivity
[8] = listed as 99mTc-HYNIC-(tricine/EDDA)-FROP

Structure (SMILES): CSCC[C@H](NC(=O)[C@H](CC(C)C)NC(=O)[C@H](CCC(=O)O)NC(=O)[C@H](Cc1ccc(O)cc1)NC(=O)[C@H](CC(=O)O)NC(=O)[C@@H](N)CCC(=O)O)C(=O)N[C@@H](CC(=O)O)C(=O)N[C@@H](CC(C)C)C(=O)N[C@@H](CC(C)C)C(=O)N[C@@H](C)C(=O)N[C@@H](Cc1ccc(O)cc1)C(=O)N[C@@H](CC(C)C)C(=O)N[C@@H](CCCCNC(=O)c1ccc(NN)nc1)C(=O)O [^99mTc-HYNIC-FROP, metal not drawn] (H-EDYELMDLLAYLK(HYNIC)-OH)
- %RCP in succinate buffer (peptide reaction mixture) ([1]; 2 h): 99.6 ± 0.2%
- %RCP in succinate buffer (peptide reaction mixture) ([1]; 4 h): 99.5 ± 0.4%
- %RCP in succinate buffer (peptide reaction mixture) ([1]; 6 h): 99.1 ± 0.9%
- %RCP in succinate buffer (peptide reaction mixture) ([1]; 24 h): 96.8 ± 2.4%
- %RCP in normal saline ([2]; 2 h): 99.5 ± 0.4%
- %RCP in normal saline ([2]; 4 h): 99.1 ± 0.9%
- %RCP in normal saline ([2]; 6 h): 99 ± 0.8%
- %RCP in normal saline ([2]; 24 h): 94.6 ± 2.7%
- MCF-7/A-549 ratio of uptake [3, 7]: 8.2
- MCF-7/PC-3 ratio of uptake [3, 7]: 2.3
- MCF-7/SKOV-3 ratio of uptake [3, 7]: 8.8
- MCF-7/T47D ratio of uptake [3, 7]: 4.5
- MCF-7/HFFF2 ratio of uptake ([3]; HFFF2 = normal human fibroblast): 9.7
- binding to MCF-7 cells with 500-fold excess of unlabeled peptide (FROP) [4]: significant reduction
- Bmax (maximum number of binding sites) ([5]; listed as 99mTc-HYNIC-(tricine-EDDA)-Lys-FROP): 4.5 ± 0.6 × 10^7 CPM/pMol
- Bmax (maximum number of binding sites) [5, 8]: (4.5±0.6)·10^7 CPM/pMol
- tumor visualization by planar gamma imaging [6]: tumor was clearly visualized
- tumor visualization by planar gamma imaging [6, 8]: tumor was clearly visible
